Assay results taken from patent US20240018145A1, “[…]-DEPENDENT EN[…] TREATING OR […]” (priority 2020, published 2024).

Test system: FLU A (PR/8/34)
Assay: Flu A Neuraminidase Antiviral Assay
Type: cell-based

Compound	EC50
CC1(c2ccccc2)CCCC2N(CC3COC3)C(=O)c3c(O)c(=O)ccn3N21 (single isomer, unassigned) [Compound 40B, 7-hydroxy-1-methyl-5-(oxetan-3-ylmethyl)-1-phenyl-1,2,3,4,4a,5-hexahydrodipyrido[1,2-b:2′,1′-f][1,2,4]triazine-6,8-dione]	> 8100 nM
CC1(c2nccs2)CCCC2N(CC(F)(F)F)C(=O)c3c(O)c(=O)ccn3N21 (single isomer, unassigned) [Compound 41A, 7-hydroxy-1-methyl-1-(thiazol-2-yl)-5-(2,2,2-trifluoroethyl)-1,2,3,4,4a,5-hexahydrodipyrido[1,2-b:2′,1′-f][1,2,4]triazine-6,8-dione]	> 8100 nM
CC1(c2nccs2)CCCC2N(CC(F)(F)F)C(=O)c3c(O)c(=O)ccn3N21 (single isomer, unassigned) [Compound 41B, 7-hydroxy-1-methyl-1-(thiazol-2-yl)-5-(2,2,2-trifluoroethyl)-1,2,3,4,4a,5-hexahydrodipyrido[1,2-b:2′,1′-f][1,2,4]triazine-6,8-dione]	11.1 nM
CC1(c2ccccc2)CCCC2N(CC3CC4(CCC4)C3)C(=O)c3c(O)c(=O)ccn3N21 (single isomer, unassigned) [Compound 42A, 7-hydroxy-1-methyl-1-phenyl-5-(spiro[3.3]heptan-2-ylmethyl)-1,2,3,4,4a,5-hexahydrodipyrido[1,2-b:2′,1′-f][1,2,4]triazine-6,8-dione]	> 8100 nM
CC1(c2ccccc2)CCCC2N(CC3CC4(CCC4)C3)C(=O)c3c(O)c(=O)ccn3N21 (single isomer, unassigned) [Compound 42B, 7-hydroxy-1-methyl-1-phenyl-5-(spiro[3.3]heptan-2-ylmethyl)-1,2,3,4,4a,5-hexahydrodipyrido[1,2-b:2′,1′-f][1,2,4]triazine-6,8-dione]	49.5 nM
CC1CC2N(C)C(=O)c3c(O)c(=O)ccn3N2C(C)(c2ccccc2)C1 (single isomer, unassigned) [Compound 43A, 7-hydroxy-1,3,5-trimethyl-1-phenyl-1,2,3,4,4a,5-hexahydrodipyrido[1,2-b:2′,1′-f][1,2,4]triazine-6,8-dione]	1170 nM
CC1CC2N(C)C(=O)c3c(O)c(=O)ccn3N2C(C)(c2ccccc2)C1 (single isomer, unassigned) [Compound 43B, 7-hydroxy-1,3,5-trimethyl-1-phenyl-1,2,3,4,4a,5-hexahydrodipyrido[1,2-b:2′,1′-f][1,2,4]triazine-6,8-dione]	1100 nM
CC1CC2N(C)C(=O)c3c(O)c(=O)ccn3N2C(C)(c2ccccc2)C1 (single isomer, unassigned) [Compound 43C, 7-hydroxy-1,3,5-trimethyl-1-phenyl-1,2,3,4,4a,5-hexahydrodipyrido[1,2-b:2′,1′-f][1,2,4]triazine-6,8-dione]	14.1 nM
CC1CC2N(C)C(=O)c3c(O)c(=O)ccn3N2C(C)(c2ccccc2)C1 (single isomer, unassigned) [Compound 43D, 7-hydroxy-1,3,5-trimethyl-1-phenyl-1,2,3,4,4a,5-hexahydrodipyrido[1,2-b:2′,1′-f][1,2,4]triazine-6,8-dione]	7.8 nM
Cc1cccnc1C1(C)CCCC2N(CC(F)(F)F)C(=O)c3c(O)c(=O)ccn3N21 (single isomer, unassigned) [Compound 44A, 7-hydroxy-1-methyl-1-(3-methylpyridin-2-yl)-5-(2,2,2-trifluoroethyl)-1,2,3,4,4a,5-hexahydrodipyrido[1,2-b:2′,1′-f][1,2,4]triazine-6,8-dione]	> 8100 nM
Cc1cccnc1C1(C)CCCC2N(CC(F)(F)F)C(=O)c3c(O)c(=O)ccn3N21 (single isomer, unassigned) [Compound 44B, 7-hydroxy-1-methyl-1-(3-methylpyridin-2-yl)-5-(2,2,2-trifluoroethyl)-1,2,3,4,4a,5-hexahydrodipyrido[1,2-b:2′,1′-f][1,2,4]triazine-6,8-dione]	15.2 nM
CC1(c2ccccc2)CCCC2N(CC3CC(F)(F)C3)C(=O)c3c(O)c(=O)ccn3N21 (single isomer, unassigned) [Compound 45A, 5-((3,3-difluorocyclobutyl)methyl)-7-hydroxy-1-methyl-1-phenyl-1,2,3,4,4a,5-hexahydrodipyrido[1,2-b:2′,1′-f][1,2,4]triazine-6,8-dione]	> 8100 nM
CC1(c2ccccc2)CCCC2N(CC3CC(F)(F)C3)C(=O)c3c(O)c(=O)ccn3N21 (single isomer, unassigned) [Compound 45B, 5-((3,3-difluorocyclobutyl)methyl)-7-hydroxy-1-methyl-1-phenyl-1,2,3,4,4a,5-hexahydrodipyrido[1,2-b:2′,1′-f][1,2,4]triazine-6,8-dione]	10.6 nM
CN1C(=O)c2c(O)c(=O)ccn2N2C1CCCC2(C)c1ncc(F)cc1F (single isomer, unassigned) [Compound 46A, 1-(3,5-difluoropyridin-2-yl)-7-hydroxy-1,5-dimethyl-1,2,3,4,4a,5-hexahydrodipyrido[1,2-b:2′,1′-f][1,2,4]triazine-6,8-dione]	40.3 nM
CN1C(=O)c2c(O)c(=O)ccn2N2C1CCCC2(C)c1ncc(F)cc1F (single isomer, unassigned) [Compound 46B, 1-(3,5-difluoropyridin-2-yl)-7-hydroxy-1,5-dimethyl-1,2,3,4,4a,5-hexahydrodipyrido[1,2-b:2′,1′-f][1,2,4]triazine-6,8-dione]	> 8100 nM
CC1(c2ncc(F)cc2F)CCCC2N(CC(F)F)C(=O)c3c(O)c(=O)ccn3N21 (single isomer, unassigned) [Compound 47A, 5-(2,2-difluoroethyl)-1-(3,5-difluoropyridin-2-yl)-7-hydroxy-1-methyl-1,2,3,4,4a,5-hexahydrodipyrido[1,2-b:2′,1′-f][1,2,4]triazine-6,8-dione]	25.7 nM
CC1(c2ncc(F)cc2F)CCCC2N(CC(F)F)C(=O)c3c(O)c(=O)ccn3N21 (single isomer, unassigned) [Compound 47B, 5-(2,2-difluoroethyl)-1-(3,5-difluoropyridin-2-yl)-7-hydroxy-1-methyl-1,2,3,4,4a,5-hexahydrodipyrido[1,2-b:2′,1′-f][1,2,4]triazine-6,8-dione]	4380 nM
Cc1ccc(C2(C)CCCC3N(CC(F)(F)F)C(=O)c4c(O)c(=O)ccn4N32)nc1 (single isomer, unassigned) [Compound 49A, 7-hydroxy-1-methyl-1-(5-methylpyridin-2-yl)-5-(2,2,2-trifluoroethyl)-1,2,3,4,4a,5-hexahydrodipyrido[1,2-b:2′,1′-f][1,2,4]triazine-6,8-dione]	> 8100 nM
Cc1ccc(C2(C)CCCC3N(CC(F)(F)F)C(=O)c4c(O)c(=O)ccn4N32)nc1 (single isomer, unassigned) [Compound 49B, 7-hydroxy-1-methyl-1-(5-methylpyridin-2-yl)-5-(2,2,2-trifluoroethyl)-1,2,3,4,4a,5-hexahydrodipyrido[1,2-b:2′,1′-f][1,2,4]triazine-6,8-dione]	26.5 nM
Cc1ccnc(C2(C)CCCC3N(CC(F)(F)F)C(=O)c4c(O)c(=O)ccn4N32)c1 (single isomer, unassigned) [Compound 50A, 7-hydroxy-1-methyl-1-(4-methylpyridin-2-yl)-5-(2,2,2-trifluoroethyl)-1,2,3,4,4a,5-hexahydrodipyrido[1,2-b:2′,1′-f][1,2,4]triazine-6,8-dione]	> 8100 nM
Cc1ccnc(C2(C)CCCC3N(CC(F)(F)F)C(=O)c4c(O)c(=O)ccn4N32)c1 (single isomer, unassigned) [Compound 50B, 7-hydroxy-1-methyl-1-(4-methylpyridin-2-yl)-5-(2,2,2-trifluoroethyl)-1,2,3,4,4a,5-hexahydrodipyrido[1,2-b:2′,1′-f][1,2,4]triazine-6,8-dione]	9 nM
CN1C(=O)c2c(O)c(=O)ccn2N2C1CCCC2(C)c1cccc(OC(F)F)c1 (single isomer, unassigned) [Compound 51A, 1-(3-(difluoromethoxy)phenyl)-7-hydroxy-1,5-dimethyl-1,2,3,4,4a,5-hexahydrodipyrido[1,2-b:2′,1′-f][1,2,4]triazine-6,8-dione]	> 8100 nM
CN1C(=O)c2c(O)c(=O)ccn2N2C1CCCC2(C)c1cccc(OC(F)F)c1 (single isomer, unassigned) [Compound 51B, 1-(3-(difluoromethoxy)phenyl)-7-hydroxy-1,5-dimethyl-1,2,3,4,4a,5-hexahydrodipyrido[1,2-b:2′,1′-f][1,2,4]triazine-6,8-dione]	16.3 nM
CC1(c2cc(C(F)(F)F)ccn2)CCCC2N(CC3(C(F)(F)F)CC3)C(=O)c3c(O)c(=O)ccn3N21 (single isomer, unassigned) [Compound 52A, 7-hydroxy-1-methyl-5-((1-(trifluoromethyl)cyclopropyl)methyl)-1-(4-(trifluoromethyl)pyridin-2-yl)-1,2,3,4,4a,5-hexahydrodipyrido[1,2-b:2′,1′-f][1,2,4]triazine-6,8-dione]	114 nM
CC1(c2cc(C(F)(F)F)ccn2)CCCC2N(CC3(C(F)(F)F)CC3)C(=O)c3c(O)c(=O)ccn3N21 (single isomer, unassigned) [Compound 52B, 7-hydroxy-1-methyl-5-((1-(trifluoromethyl)cyclopropyl)methyl)-1-(4-(trifluoromethyl)pyridin-2-yl)-1,2,3,4,4a,5-hexahydrodipyrido[1,2-b:2′,1′-f][1,2,4]triazine-6,8-dione]	> 2700 nM
CCN1C(=O)c2c(O)c(=O)ccn2N2C1CCCC2(C)c1cccc(C)n1 (single isomer, unassigned) [Compound 53A, 5-ethyl-7-hydroxy-1-methyl-1-(6-methylpyridin-2-yl)-1,2,3,4,4a,5-hexahydrodipyrido[1,2-b:2′,1′-f][1,2,4]triazine-6,8-dione]	> 810 nM
CCN1C(=O)c2c(O)c(=O)ccn2N2C1CCCC2(C)c1cccc(C)n1 (single isomer, unassigned) [Compound 53B, 5-ethyl-7-hydroxy-1-methyl-1-(6-methylpyridin-2-yl)-1,2,3,4,4a,5-hexahydrodipyrido[1,2-b:2′,1′-f][1,2,4]triazine-6,8-dione]	8.3 nM
Cc1cccc(C2(C)CCCC3N(CC(F)F)C(=O)c4c(O)c(=O)ccn4N32)n1 (single isomer, unassigned) [Compound 54A, 5-(2,2-difluoroethyl)-7-hydroxy-1-methyl-1-(6-methylpyridin-2-yl)-1,2,3,4,4a,5-hexahydrodipyrido[1,2-b:2′,1′-f][1,2,4]triazine-6,8-dione]	> 810 nM
